Laboratory results published in ChEMBL document CHEMBL3352687, “Synthesis of N-glycan units for assessment of substrate structural requirements of N-acetylglucosaminyltransferase III” (Bioorg Med Chem Lett, 2014).
Active and inactive are the calls of the source. The calls are words filed in the database; no cut-off is given here.

assay: Competitive inhibition of human N-terminally His6-tagged N-acetylglucosaminyltransferase 3 expressed in HEK293T cells assessed as GN-GnGnbi-PAs molar ratio level at 100 to 500 uM incubated for 4 hrs using GnGnbi-PA acceptor substrate and UDP-GlcNAc donor substrate by reverse phase HPLC method; details: HEK-293T

inhibition	Compound
inactive	CO[C@H]1O[C@H](CO[C@H]2O[C@H](CO)[C@@H](O)[C@H](O)[C@@H]2O)[C@@H](O[C@@H]2O[C@H](CO)[C@@H](O)[C@H](O)[C@H]2NC(C)=O)[C@H](O[C@H]2O[C@H](CO)[C@@H](O)[C@H](O)[C@@H]2O)[C@@H]1O
Active	CO[C@H]1O[C@H](CO[C@H]2O[C@H](CO)[C@@H](O)[C@H](O)[C@@H]2O[C@@H]2O[C@H](CO)[C@@H](O)[C@H](O)[C@H]2NC(C)=O)[C@@H](O)[C@H](O[C@H]2O[C@H](CO)[C@@H](O)[C@H](O)[C@@H]2O[C@@H]2O[C@H](CO)[C@@H](O)[C@H](O)[C@H]2NC(C)=O)[C@@H]1O
Active	CO[C@H]1O[C@H](CO[C@H]2O[C@H](CO)[C@@H](O)[C@H](O)[C@@H]2O[C@@H]2O[C@H](CO)[C@@H](O)[C@H](O)[C@H]2NC(C)=O)[C@@H](O[C@@H]2O[C@H](CO)[C@@H](O)[C@H](O)[C@H]2NC(C)=O)[C@H](O[C@H]2O[C@H](CO)[C@@H](O)[C@H](O)[C@@H]2O[C@@H]2O[C@H](CO)[C@@H](O)[C@H](O)[C@H]2NC(C)=O)[C@@H]1O
inactive	CO[C@H]1O[C@H](CO[C@H]2O[C@H](CO)[C@@H](O)[C@H](O)[C@@H]2O)[C@@H](O)[C@H](O[C@H]2O[C@H](CO)[C@@H](O)[C@H](O)[C@@H]2O)[C@@H]1O
